Measured values as given in US10130633B2, “Compounds” (BAYER PHARMA AKTIENGESELLSCHAFT, priority 2013, dated 2018).

Experiments:
[1] = system: constitutive active colorectal cancer cell (CRC) Wnt pathway; assay: HCT116 TOPFlash cellular reporter assay (Super TopFlash luciferase), constitutive active Wnt pathway; format: cell-based; conditions: HCT116 TOP reporter cells, 36 hours incubation, luciferase expression
Experimental: In order to discover and characterize small molecules which inhibit the constitutive active colorectal cancer cell (CRC) Wnt pathway, a cellular reporter assay was employed. […] Stable transfectants were generated by cotransfection with pcDNA3 and selection of stable transfected cells with 1 mg/ml G418.

[2] = system: HCT116 FOP control reporter cell line; assay: HCT116 FOPFlash control reporter assay (FOP control vector, non-functional TCF elements); format: cell-based; conditions: HCT116 FOP control reporter cells, 36 hours incubation, luciferase expression
Source text: In a parallel approach, HCT116 cells were cotransfected with the FOP control vector and pcDNA3. The FOP vector is identical to the TOP construct, but it contains instead of functional TCF elements a randomized, non-functional sequence. For this transfection a stable transfected cell line was generated as well.

Row | Structure (SMILES) | IC50 [1] [µM] | IC50 [2] [µM] | IC50 ([2]; Homo sapiens, HCT-116, 36 h) [µM] | IC50 ([1]; Homo sapiens, HCT-116, 36 h) [µM]
1 | CC(C(=O)Nc1cc(NC(=O)c2ccc(-c3cccc(F)c3)nc2)ccc1OC(F)(F)F)N1CC2CCC(C1)O2 (centres unmarked) [Example 200, 6-(3-fluorophenyl)-N-[3-{[2-(8-oxa-3-azabicyclo[3.2.1]oct-3-yl)propanoyl]amino}-4-(trifluoromethoxy)phenyl] nicotinamide] | 0.19 | 6.4 | – | –
2 | CC(C(=O)Nc1cc(NC(=O)c2ccc(-c3cccc(F)c3)nc2)ccc1OC(F)(F)F)N1CCOCC1 (centres unmarked) [Example 201, 6-(3-fluorophenyl)-N-[3-{[2-(morpholin-4-yl)propanoyl]amino}-4-(trifluoromethoxy)phenyl] nicotinamide] | 0.106 | 28.6 | – | –
3 | CC(C(=O)Nc1cc(NC(=O)c2ccc(-c3cc(F)cc(F)c3)nc2)ccc1OC(F)(F)F)N1CC2CCC(C1)O2 (centres unmarked) [Example 202, 6-(3,5-difluorophenyl)-N-[3-{[2-(8-oxa-3-azabicyclo[3.2.1]oct-3-yl)propanoyl]amino}-4-(trifluoromethoxy)phenyl] nicotinamide] | 0.2 | 5.8 | – | –
4 | CC(C(=O)Nc1cc(NC(=O)c2ccc(-c3cc(F)cc(F)c3)nc2)ccc1OC(F)(F)F)N1CCOCC1 (centres unmarked) [Example 203, 6-(3,5-difluorophenyl)-N-[3-{[2-(morpholin-4-yl)propanoyl]amino}-4-(trifluoromethoxy)phenyl] nicotinamide] | 0.124 | 15.2 | – | –
5 | CC(C(=O)Nc1cc(NC(=O)c2ccc(-c3ccccc3F)nc2)ccc1OC(F)(F)F)N1CC2CCC(C1)O2 (centres unmarked) [Example 204, 6-(2-fluorophenyl)-N-[3-{[2-(8-oxa-3-azabicyclo[3.2.1]oct-3-yl)propanoyl]amino}-4-(trifluoromethoxy)phenyl] nicotinamide] | 0.0765 | 32.8 | – | –
6 | CC(C(=O)Nc1cc(NC(=O)c2ccc(-c3ccccc3F)nc2)ccc1OC(F)(F)F)N1CC2CCC(C1)O2 (centres unmarked) [Example 205, 6-(2-fluorophenyl)-N-[3-{[2-(8-oxa-3-azabicyclo[3.2.1]oct-3-yl)propanoyl]amino}-4-(trifluoromethoxy)phenyl] nicotinamide] | 0.0202 | 18.2 | – | –
7 | CC(C(=O)Nc1cc(NC(=O)c2ccc(-c3ccccc3F)nc2)ccc1OC(F)(F)F)N1CCOCC1 (centres unmarked) [Example 206, 6-(2-fluorophenyl)-N-[3-{[2-(morpholin-4-yl)propanoyl]amino}-4-(trifluoromethoxy)phenyl] nicotinamide] | 0.0876 | – | 36.5 | –
8 | CC(C(=O)Nc1cc(C(=O)Nc2ccc(-c3ccccc3F)nc2)ccc1C(F)(F)F)N1CCOCC1 (centres unmarked) [Example 207, N-[6-(2-fluorophenyl)pyridin-3-yl]-3-{[2-(morpholin-4-yl)propanoyl]amino}-4-(trifluoromethyl)benzamide] | 0.153 | 8.55 | – | –
9 | CN1CCN(CC(=O)Nc2cc(C(=O)Nc3ccc(-c4ccccc4F)nc3)ccc2C(F)(F)F)CC1 [Example 210, N-[6-(2-fluorophenyl)pyridin-3-yl]-3-{[(4-methylpiperazin-1-yl)acetyl]amino}-4-(trifluoromethyl)benzamide] | – | – | 29.5 | 0.152
10 | CC(C(=O)Nc1cc(C(=O)Nc2ccc(-c3ccccc3F)nc2)ccc1C(F)(F)F)N1CCOCC1 (centres unmarked) [Example 211, N-[6-(2-fluorophenyl)pyridin-3-yl]-3-{[2-(morpholin-4-yl)propanoyl]amino}-4-(trifluoromethyl)benzamide] | 0.0402 | 24.6 | – | –
11 | CC(C(=O)Nc1cc(NC(=O)c2ccc(-c3ccccc3F)nc2)ccc1OC(F)(F)F)N1CC2CCC(C1)O2 (centres unmarked) [Example 212, 6-(2-fluorophenyl)-N-[3-{[2-(8-oxa-3-azabicyclo[3.2.1]oct-3-yl)propanoyl]amino}-4-(trifluoromethoxy)phenyl] nicotinamide] | 0.18 | ≥ 50 | – | –
12 | CC(C(=O)Nc1cc(NC(=O)c2ccc(-c3ccccc3F)nc2)ccc1OC(F)(F)F)N1CCOCC1 (centres unmarked) [Example 213, 6-(2-fluorophenyl)-N-[3-{[2-(morpholin-4-yl)propanoyl]amino}-4-(trifluoromethoxy)phenyl] nicotinamide] | 0.14 | ≥ 50 | – | –
13 | O=C(CN1C[C@@H]2C[C@H]1CO2)Nc1cc(C(=O)Nc2ccc(-c3cc(F)cc(F)c3)nc2)ccc1OC(F)(F)F [Example 214, N-[6-(3,5-difluorophenyl)pyridin-3-yl]-3-{[(1S,4S)-2-oxa-5-azabicyclo[2.2.1]hept-5-ylacetyl]amino}-4-(trifluoromethoxy)benzamide] | – | – | 6.3 | 0.375
14 | CC(C(=O)Nc1cc(C(=O)Nc2ccc(-c3cc(F)cc(F)c3)nc2)ccc1OC(F)(F)F)N1CC2CCC(C1)O2 (centres unmarked) [Example 215, N-[6-(3,5-difluorophenyl)pyridin-3-yl]-3-{[2-(8-oxa-3-azabicyclo[3.2.1]oct-3-yl)propanoyl]amino}-4-(trifluoromethoxy)benzamide] | 0.245 | 3.3 | – | –
15 | O=C(CN1CC2CCC(C1)O2)Nc1cc(NC(=O)c2ccc(-c3cc(F)cc(F)c3)nc2)ccc1OC(F)(F)F [Example 216, 6-(3,5-difluorophenyl)-N-{3-[(8-oxa-3-azabicyclo[3.2.1]oct-3-ylacetyl)amino]-4-(trifluoromethoxy)phenyl} nicotinamide] | – | – | 3.6 | 0.26
16 | CC(C(=O)Nc1cc(NC(=O)c2ccc(-c3cc(F)cc(F)c3)nc2)ccc1OC(F)(F)F)N1CC2CCC(C1)O2 (centres unmarked) [Example 218, 6-(3,5-difluorophenyl)-N-[3-{[2-(8-oxa-3-azabicyclo[3.2.1]oct-3-yl)propanoyl]amino}-4-(trifluoromethoxy)phenyl] nicotinamide] | 0.33 | 15 | – | –
17 | CC(C(=O)Nc1cc(NC(=O)c2ccc(-c3cc(F)cc(F)c3)nc2)ccc1OC(F)(F)F)N1CCOCC1 (centres unmarked) [Example 219, 6-(3,5-difluorophenyl)-N-[3-{[2-(morpholin-4-yl)propanoyl]amino}-4-(trifluoromethoxy)phenyl] nicotinamide] | 0.245 | ≥ 50 | – | –
18 | CC(C(=O)Nc1cc(NC(=O)c2ccc(-c3cccc(F)c3)nc2)ccc1OC(F)(F)F)N1CC2CCC(C1)O2 (centres unmarked) [Example 220, 6-(3-fluorophenyl)-N-[3-{[2-(8-oxa-3-azabicyclo[3.2.1]oct-3-yl)propanoyl]amino}-4-(trifluoromethoxy)phenyl] nicotinamide] | 0.375 | 13 | – | –
19 | CC(C(=O)Nc1cc(C(=O)Nc2ccc(-c3cc(F)cc(F)c3)nc2)ccc1OC(F)(F)F)N1CCOCC1 (centres unmarked) [Example 221, N-[6-(3,5-difluorophenyl)pyridin-3-yl]-3-{[2-(morpholin-4-yl)propanoyl]amino}-4-(trifluoromethoxy)benzamide] | 0.235 | 12.2 | – | –
20 | CC(C(=O)Nc1cc(C(=O)Nc2ccc(-c3cc(F)cc(F)c3)nc2)ccc1OC(F)(F)F)N1C[C@@H]2C[C@H]1CO2 (stereo partly drawn) [Example 223, N-[6-(3,5-difluorophenyl)pyridin-3-yl]-3-({2-[(1S,4S)-2-oxa-5-azabicyclo[2.2.1]hept-5-yl]propanoyl}amino)-4-(trifluoromethoxy)benzamide] | – | – | 17.1 | 0.238
21 | CC(C(=O)Nc1cc(NC(=O)c2ccc(-c3ccccc3F)nc2)ccc1OC(F)(F)F)N1CCOCC1 (centres unmarked) [Example 224, 6-(2-fluorophenyl)-N-[3-{[2-(morpholin-4-yl)propanoyl]amino}-4-(trifluoromethoxy)phenyl] nicotinamide] | 0.382 | ≥ 50 | – | –
22 | CC(C(=O)Nc1cc(C(=O)Nc2ccc(-c3ccccc3F)nc2)ccc1C(F)(F)F)N1CCOCC1 (centres unmarked) [Example 225, N-[6-(2-fluorophenyl)pyridin-3-yl]-3-{[2-(morpholin-4-yl)propanoyl]amino}-4-(trifluoromethyl)benzamide] | 0.237 | 11.2 | – | –
23 | O=C(CN1CC2CCC(C1)O2)Nc1cc(C(=O)Nc2ccc(-c3ccccc3F)nc2)ccc1C(F)(F)F [Example 226, N-[6-(2-fluorophenyl)pyridin-3-yl]-3-[(8-oxa-3-azabicyclo[3.2.1]oct-3-ylacetyl)amino]-4-(trifluoromethyl)benzamide] | – | – | 6.5 | 0.245
24 | O=C(CN1CCN(C2CC2)CC1)Nc1cc(C(=O)Nc2ccc(-c3ccccc3F)nc2)ccc1C(F)(F)F [Example 227, 3-{[(4-cyclopropylpiperazin-1-yl)acetyl]amino}-N-[6-(2-fluorophenyl)pyridin-3-yl]-4-(trifluoromethyl)benzamide] | – | – | 10.2 | 0.245
25 | CN(C(=O)CN1CCOCC1)c1cc(C(=O)Nc2ccc(-c3ccccc3)nc2)ccc1OC(F)(F)F [Example 228, 3-[methyl(morpholin-4-ylacetyl)amino]-N-(6-phenylpyridin-3-yl)-4-(trifluoromethoxy)benzamide] | – | – | 29 | 2.87
26 | COc1ccc(NC(=O)c2ccc(-c3ccc(F)cc3)nc2)cc1NC(=O)CN1CCOCC1 [Example 229, 6-(4-fluorophenyl)-N-{4-methoxy-3-[(morpholin-4-ylacetyl)amino]phenyl} nicotinamide] | – | – | ≥ 50 | 2.3
27 | CC(C(=O)Nc1cc(C(=O)Nc2nnc(-c3ccccc3)s2)ccc1CS(C)(=O)=O)N1CCN(C)CC1 (centres unmarked) [Example 231, 3-{[2-(4-methylpiperazin-1-yl)propanoyl]amino}-4-[(methylsulfonyl)methyl]-N-(5-phenyl-1,3,4-thiadiazol-2-yl)benzamide] | 1.02 | – | ≥ 50 | –
28 | CC(C(=O)Nc1cc(C(=O)Nc2nnc(-c3ccccc3)s2)ccc1CS(C)(=O)=O)N1CCN(C)CC1 (centres unmarked) [Example 232, 3-{[2-(4-methylpiperazin-1-yl)propanoyl]amino}-4-[(methylsulfonyl)methyl]-N-(5-phenyl-1,3,4-thiadiazol-2-yl)benzamide] | 2.2 | ≥ 50 | – | –
